One test concerns D. immitis microfilariae. Briefly: Dirofilaria immitis, microfilariae (DiMF) in vitro motility assay. The note with it: Dirofilaria immitis, 72 h, read-out: DiMF minimally effective dose (MEC). It is filed as cell-based.
The test system of a further test is Haemonchus contortus L3. The test can be described thus: microbe, parasite or virus in culture. Type of test: cell-based. The note with it: Haemonchus contortus, 96 h, read-out: HcL3 Minimal Effective Concentration (MEC).

The structures appear in SMILES notation.

`N#Cc1ccc(/C=C/CN2CCc3c(c4ccc(C(F)(F)F)cc4n3C(=O)NCc3ccnc(Cl)c3)C2)cc1F` [Example 153, (E)-N-((2-chloropyridin-4-yl)methyl)-2-(3-(4-cyano-3-fluorophenyl)allyl)-7-(trifluoromethyl)-1,2,3,4-tetrahydro-5H-pyrido[4,3-b]indole-5-carboxamide]: the results for the minimal effective concentration with D. immitis microfilariae and in the test on Haemonchus contortus L3 were 7.6 µM and 1.3 µM, respectively.

In the case of `O=C(NCc1ccnc(Cl)c1)n1c2c(c3c(Cl)cccc31)CN(C/C=C/c1ccc(Cl)c(Cl)c1)CC2` [Example 216, (E)-9-chloro-N-((2-chloropyridin-4-yl)methyl)-2-(3-(3,4-dichlorophenyl)allyl)-1,2,3,4-tetrahydro-5H-pyrido[4,3-b]indole-5-carboxamide], the results for the minimal effective concentration in the test on D. immitis microfilariae and with Haemonchus contortus L3 were 18.2 µM and 1 µM, respectively.

Regarding `O=C(NCc1ccnc(O)c1)n1c2c(c3cc(C(F)(F)F)ccc31)CN(C/C=C/c1ccc(F)cc1F)CC2` [Example 453, (E)-2-(3-(2,4-difluorophenyl)allyl)-N-((2-hydroxypyridin-4-yl)methyl)-8-(trifluoromethyl)-1,2,3,4-tetrahydro-5H-pyrido[4,3-b]indole-5-carboxamide], the minimal effective concentration in the test on D. immitis microfilariae is 10 µM; in the test with Haemonchus contortus L3, over 100 µM.

With `N#Cc1ccc2c(c1)c1c(n2C(=O)NCc2ccnc(O)c2)CCN(C/C=C/c2ccc(Br)cc2F)C1` [Example 451, (E)-2-(3-(4-bromo-2-fluorophenyl)allyl)-8-cyano-N-((2-hydroxypyridin-4-yl)methyl)-1,2,3,4-tetrahydro-5H-pyrido[4,3-b]indole-5-carboxamide], the figures for the minimal effective concentration in the test with D. immitis microfilariae and with Haemonchus contortus L3 were 3.3 µM and over 100 µM, respectively.

On to `O=C(NCc1ccnc(Cl)c1)n1c2c(c3cccc(Cl)c31)CN(C/C=C/c1ccc(Cl)cc1)CC2` [Example 267, (E)-6-chloro-2-(3-(4-chlorophenyl)allyl)-N-((2-chloropyridin-4-yl)methyl)-1,2,3,4-tetrahydro-5H-pyrido[4,3-b]indole-5-carboxamide], for which the figures for the minimal effective concentration with D. immitis microfilariae and with Haemonchus contortus L3 were 10 µM and over 100 µM, respectively.

For the compound `O=C(NCc1ccnc(Cl)c1)n1c2c(c3c4ccccc4ccc31)CN(C/C=C/c1ccc(Cl)cc1)CC2` [Example 436, (E)-10-(3-(4-chlorophenyl)allyl)-N-((2-chloropyridin-4-yl)methyl)-8,9,10,11-tetrahydro-7H-benzo[e]pyrido[4,3-b]indole-7-carboxamide], the minimal effective concentration with D. immitis microfilariae is 18.2 µM; in the test on Haemonchus contortus L3 it was over 100 µM.

Consider `O=C(NCc1cnc(Cl)s1)n1c2c(c3c(OC(F)(F)F)cccc31)CN(C/C=C/c1ccc(Cl)cc1)CC2` [Example 383, (E)-2-(3-(4-chlorophenyl)allyl)-N-((2-chlorothiazol-5-yl)methyl)-9-(trifluoromethoxy)-1,2,3,4-tetrahydro-5H-pyrido[4,3-b]indole-5-carboxamide], for which the minimal effective concentration in the test on D. immitis microfilariae was 5.7 µM; with Haemonchus contortus L3 it was over 100 µM.

Regarding `N#Cc1ccc2c(c1)c1c(n2C(=O)NCc2ccnc(Cl)c2)CCN(C/C=C/c2ccc(F)c(Br)c2)C1` [Example 79, (E)-2-(3-(3-bromo-4-fluorophenyl)allyl)-N-((2-chloropyridin-4-yl)methyl)-8-cyano-1,2,3,4-tetrahydro-5H-pyrido[4,3-b]indole-5-carboxamide], the minimal effective concentration is over 100 µM with D. immitis microfilariae and 0.3 µM with Haemonchus contortus L3.

Consider `O=C(NCc1ccnc(Cl)c1)n1c2c(c3cc(Cl)c(OC(F)(F)F)cc31)CN(C/C=C/c1ccc(Cl)cc1)CC2` [Example 499, (E)-8-chloro-2-(3-(4-chlorophenyl)allyl)-N-((2-chloropyridin-4-yl)methyl)-7-(trifluoromethoxy)-1,2,3,4-tetrahydro-5H-pyrido[4,3-b]indole-5-carboxamide], for which the minimal effective concentration was over 100 µM with D. immitis microfilariae and 1.8 µM in the test on Haemonchus contortus L3.

With `O=C(NCc1ccnc(Cl)c1)n1c2c(c3cc(F)c(Cl)cc31)CN(C/C=C/c1ccc(Cl)cc1)CC2` [Example 304, (E)-7-chloro-2-(3-(4-chlorophenyl)allyl)-N-((2-chloropyridin-4-yl)methyl)-8-fluoro-1,2,3,4-tetrahydro-5H-pyrido[4,3-b]indole-5-carboxamide], the minimal effective concentration in the test on D. immitis microfilariae was determined as 18.2 µM; in the test on Haemonchus contortus L3, 0.3 µM.

For the compound `O=C(NCc1ccnc(F)c1)n1c2c(c3cc(Br)ccc31)CN(C/C=C/c1ccc(Cl)c(F)c1)CC2` [Example 188, (E)-8-bromo-2-(3-(4-chloro-3-fluorophenyl)allyl)-N-((2-fluoropyridin-4-yl)methyl)-1,2,3,4-tetrahydro-5H-pyrido[4,3-b]indole-5-carboxamide], the minimal effective concentration in the test on D. immitis microfilariae turned out to be 3.3 µM; in the test with Haemonchus contortus L3, 0.3 µM.

Turning to `O=C(NCc1ccnc(F)c1)n1c2c(c3cc(OC(F)(F)F)ccc31)CN(C/C=C/c1cc(F)c(F)c(F)c1)CC2` [Example 406, (E)-N-((2-fluoropyridin-4-yl)methyl)-8-(trifluoromethoxy)-2-(3-(3,4,5-trifluorophenyl)allyl)-1,2,3,4-tetrahydro-5H-pyrido[4,3-b]indole-5-carboxamide], the values for the minimal effective concentration with D. immitis microfilariae and in the test on Haemonchus contortus L3 were 13.5 µM and 0.4 µM, respectively.

For `N#Cc1ccc2c(c1)c1c(n2C(=O)NCc2ccnc(Cl)c2)CCN(C/C=C/c2ccc(Br)c(F)c2)C1` [Example 85, (E)-2-(3-(4-bromo-3-fluorophenyl)allyl)-N-((2-chloropyridin-4-yl)methyl)-8-cyano-1,2,3,4-tetrahydro-5H-pyrido[4,3-b]indole-5-carboxamide], the minimal effective concentration with D. immitis microfilariae is over 100 µM; with Haemonchus contortus L3, 0.1 µM.

On to `N#Cc1ccc2c3c(n(C(=O)NCc4ccnc(Cl)c4)c2c1)CCN(C/C=C/c1ccc(F)cc1F)C3` [Example 26, (E)-N-((2-chloropyridin-4-yl)methyl)-7-cyano-2-(3-(2,4-difluorophenyl)allyl)-1,2,3,4-tetrahydro-5H-pyrido[4,3-b]indole-5-carboxamide], for which the minimal effective concentration stood at 5.7 µM in the test on D. immitis microfilariae and 2.4 µM in the test on Haemonchus contortus L3.

In the case of `O=C(NCc1ccnc(Cl)c1)n1c2c(c3c(Cl)c(F)ccc31)CN(C/C=C/c1ccc(C(F)(F)F)cc1)CC2` [Example 308, (E)-9-chloro-N-((2-chloropyridin-4-yl)methyl)-8-fluoro-2-(3-(4-(trifluoro-methyl)phenyl)allyl)-1,2,3,4-tetrahydro-5H-pyrido[4,3-b]indole-5-carboxamide], the minimal effective concentration in the test on D. immitis microfilariae worked out at 32.1 µM; in the test on Haemonchus contortus L3 it was 10.3 µM.

Take `O=C(NCc1ccnc(F)c1)n1c2c(c3ccc(Cl)cc31)CN(C/C=C/c1ccc(F)c(Cl)c1)CC2` [Example 227, (E)-7-chloro-2-(3-(3-chloro-4-fluorophenyl)allyl)-N-((2-fluoropyridin-4-yl)methyl)-1,2,3,4-tetrahydro-5H-pyrido[4,3-b]indole-5-carboxamide]: the minimal effective concentration in the test with D. immitis microfilariae was determined as 1.8 µM; in the test on Haemonchus contortus L3, 5.7 µM.

As to `N#Cc1ccc2c3c(n(C(=O)NCc4ccnc(Cl)c4)c2c1)CCN(C/C=C/c1cc(Br)ccc1F)C3` [Example 11, (E)-2-(3-(5-bromo-2-fluorophenyl)allyl)-N-((2-chloropyridin-4-yl)methyl)-7-cyano-1,2,3,4-tetrahydro-5H-pyrido[4,3-b]indole-5-carboxamide], the minimal effective concentration in the test on D. immitis microfilariae was over 100 µM; in the test with Haemonchus contortus L3 it was 1.8 µM.

As to `N#Cc1ccc2c(c1)c1c(n2C(=O)NCc2ccnc(Cl)c2)CCN(C/C=C/c2ccc(F)c(F)c2F)C1` [Example 80, (E)-N-((2-chloropyridin-4-yl)methyl)-8-cyano-2-(3-(2,3,4-trifluorophenyl)allyl)-1,2,3,4-tetrahydro-5H-pyrido[4,3-b]indole-5-carboxamide], the minimal effective concentration in the test with D. immitis microfilariae was over 100 µM; with Haemonchus contortus L3 it was 0.06 µM.

Turning to `N#Cc1ccc(-c2ccc3c(c2)c2c(n3C(=O)NCc3ccnc(F)c3)CCN(C/C=C/c3ccc(Cl)cc3)C2)cn1` [Example 460, (E)-2-(3-(4-chlorophenyl)allyl)-8-(6-cyanopyridin-3-yl)-N-((2-fluoropyridin-4-yl)methyl)-1,2,3,4-tetrahydro-5H-pyrido[4,3-b]indole-5-carboxamide], the minimal effective concentration is 57.4 µM with D. immitis microfilariae and over 100 µM with Haemonchus contortus L3.

`O=C(NCc1ccnc(Cl)c1)n1c2c(c3ccc(OC(F)(F)F)cc31)CN(Cc1ccc3cc(Cl)ccc3c1)CC2` [Example 368, 2-((6-chloronaphthalen-2-yl)methyl)-N-((2-chloropyridin-4-yl)methyl)-7-(trifluoromethoxy)-1,2,3,4-tetrahydro-5H-pyrido[4,3-b]indole-5-carboxamide]: the minimal effective concentration was 43.5 µM in the test with D. immitis microfilariae and over 100 µM in the test on Haemonchus contortus L3.

Turning to `CSc1ccc2c(c1)c1c(n2C(=O)NCc2ccnc(Cl)c2)CCN(C/C=C/c2ccc(F)c(F)c2)C1` [Example 446, (E)-N-((2-chloropyridin-4-yl)methyl)-2-(3-(3,4-difluorophenyl)allyl)-8-(methylthio)-1,2,3,4-tetrahydro-5H-pyrido[4,3-b]indole-5-carboxamide], the minimal effective concentration in the test with D. immitis microfilariae was 3.3 µM; in the test with Haemonchus contortus L3, 0.5 µM.

Take `O=C(NCc1ccnc(F)c1)n1c2c(c3ccc(C(F)(F)F)cc31)CN(C/C=C/c1ccc(Cl)c(Cl)c1)CC2` [Example 166, (E)-2-(3-(3,4-dichlorophenyl)allyl)-N-((2-fluoropyridin-4-yl)methyl)-7-(trifluoromethyl)-1,2,3,4-tetrahydro-5H-pyrido[4,3-b]indole-5-carboxamide]: the figures for the minimal effective concentration with D. immitis microfilariae and in the test with Haemonchus contortus L3 were 5.7 µM and 10 µM, respectively.

As for `N#Cc1ccc2c3c(n(C(=O)NCc4ccnc(C(F)(F)F)c4)c2c1)CCN(C/C=C/c1ccc(Cl)c(F)c1)C3` [Example 60, (E)-2-(3-(4-chloro-3-fluorophenyl)allyl)-7-cyano-N-((2-(trifluoromethyl)pyridin-4-yl)methyl)-1,2,3,4-tetrahydro-5H-pyrido[4,3-b]indole-5-carboxamide], the minimal effective concentration in the test on D. immitis microfilariae is 13.5 µM; with Haemonchus contortus L3 it was 4.4 µM.

Values taken from patent US10570129B2 (Zoetis Services LLC, priority 2015, dated 2020).
